What was measured:
Experiment in all cases: Z'-LYTE kinase panel
Format in all cases: biochemical
LYN B = molecular target: T1, LYN B (Homo sapiens, UniProt P07948)
T1 construct: purchased ThermoFisher (SelectScreen, Z'-LYTE)
How it was run: (§1)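 Percentage inhibition comes from a one-concentration (10 µM) Z′-LYTE screen run under standard protocol over 225 panel kinases.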

HIPK3 (YAK1) = molecular target: T2, HIPK3 (YAK1) (Homo sapiens, UniProt Q9H422)
T2 construct: purchased ThermoFisher (SelectScreen, Z'-LYTE)
How it was run: as §1

SYK = molecular target: T3, SYK (Homo sapiens, UniProt P43405); details: 10 µM compound, ATP Km app
T3 construct: purchased ThermoFisher (SelectScreen, Z'-LYTE)
How it was run: as §1

FGR = molecular target: T4, FGR (Homo sapiens, UniProt P09769)
T4 construct: purchased ThermoFisher (SelectScreen, Z'-LYTE)
How it was run: as §1

FLT4 (VEGFR3) = molecular target: T5, FLT4 (VEGFR3) (Homo sapiens, UniProt P35916); details: 10 µM compound, ATP Km app
T5 construct: purchased ThermoFisher (SelectScreen, Z'-LYTE)
How it was run: as §1

CAMK1D (CaMKI delta) = molecular target: T6, CAMK1D (CaMKI delta) (Homo sapiens, UniProt Q8IU85)
T6 construct: purchased ThermoFisher (SelectScreen, Z'-LYTE)
How it was run: as §1

PRKD2 (PKD2) = molecular target: T7, PRKD2 (PKD2) (Homo sapiens, UniProt Q9BZL6)
T7 construct: purchased ThermoFisher (SelectScreen, Z'-LYTE)
T7 sequence (Q9BZL6 1-878): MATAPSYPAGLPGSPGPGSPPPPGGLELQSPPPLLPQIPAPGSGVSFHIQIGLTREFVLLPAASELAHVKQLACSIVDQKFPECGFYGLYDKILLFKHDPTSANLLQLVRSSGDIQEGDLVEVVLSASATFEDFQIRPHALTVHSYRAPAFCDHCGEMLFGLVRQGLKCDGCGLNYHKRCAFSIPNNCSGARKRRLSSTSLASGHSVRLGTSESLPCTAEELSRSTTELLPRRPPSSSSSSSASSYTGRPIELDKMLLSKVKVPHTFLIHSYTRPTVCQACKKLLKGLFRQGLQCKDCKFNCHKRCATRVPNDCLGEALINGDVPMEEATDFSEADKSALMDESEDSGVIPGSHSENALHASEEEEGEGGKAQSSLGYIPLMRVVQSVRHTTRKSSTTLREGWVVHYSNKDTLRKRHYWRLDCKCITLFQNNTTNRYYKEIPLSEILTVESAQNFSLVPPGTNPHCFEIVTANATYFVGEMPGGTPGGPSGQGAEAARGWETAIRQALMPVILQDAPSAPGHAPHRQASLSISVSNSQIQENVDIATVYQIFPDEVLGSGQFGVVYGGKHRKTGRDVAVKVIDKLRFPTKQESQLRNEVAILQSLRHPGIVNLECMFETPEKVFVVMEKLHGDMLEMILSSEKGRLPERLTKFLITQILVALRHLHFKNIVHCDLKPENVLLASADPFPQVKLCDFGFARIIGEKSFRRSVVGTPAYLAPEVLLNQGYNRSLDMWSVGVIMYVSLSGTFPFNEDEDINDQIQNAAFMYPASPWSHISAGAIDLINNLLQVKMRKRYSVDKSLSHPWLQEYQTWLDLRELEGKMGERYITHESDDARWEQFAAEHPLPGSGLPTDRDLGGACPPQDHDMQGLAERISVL
How it was run: as §1

EPHA1 = molecular target: T8, EPHA1 (Homo sapiens, UniProt P21709)
T8 construct: purchased ThermoFisher (SelectScreen, Z'-LYTE)
T8 sequence (P21709 26-976): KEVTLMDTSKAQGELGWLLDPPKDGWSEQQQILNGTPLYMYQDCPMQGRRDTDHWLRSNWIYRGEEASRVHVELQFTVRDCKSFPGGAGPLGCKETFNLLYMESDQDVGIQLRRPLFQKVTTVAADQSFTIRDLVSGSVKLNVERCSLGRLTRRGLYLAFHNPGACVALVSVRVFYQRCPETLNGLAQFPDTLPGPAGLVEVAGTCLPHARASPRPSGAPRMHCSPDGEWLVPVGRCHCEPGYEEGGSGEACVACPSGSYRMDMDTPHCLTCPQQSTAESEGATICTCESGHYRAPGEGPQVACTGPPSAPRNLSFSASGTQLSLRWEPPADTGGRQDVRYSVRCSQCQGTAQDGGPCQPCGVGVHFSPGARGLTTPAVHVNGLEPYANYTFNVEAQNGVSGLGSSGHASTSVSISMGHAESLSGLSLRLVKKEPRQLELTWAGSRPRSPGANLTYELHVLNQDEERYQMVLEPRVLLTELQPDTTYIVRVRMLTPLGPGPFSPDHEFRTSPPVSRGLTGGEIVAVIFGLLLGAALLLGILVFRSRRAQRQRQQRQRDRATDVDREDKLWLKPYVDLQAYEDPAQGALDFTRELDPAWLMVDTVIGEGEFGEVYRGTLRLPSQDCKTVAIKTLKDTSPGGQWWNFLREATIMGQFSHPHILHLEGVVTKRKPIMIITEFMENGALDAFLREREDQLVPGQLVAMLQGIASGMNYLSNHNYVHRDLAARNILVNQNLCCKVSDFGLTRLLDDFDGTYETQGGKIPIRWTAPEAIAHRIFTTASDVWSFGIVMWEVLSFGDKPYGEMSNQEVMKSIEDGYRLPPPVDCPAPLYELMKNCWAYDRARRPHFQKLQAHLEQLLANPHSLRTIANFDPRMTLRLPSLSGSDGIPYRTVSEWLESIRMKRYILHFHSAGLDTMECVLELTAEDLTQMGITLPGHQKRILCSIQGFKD
How it was run: as §1

ADRBK1 (GRK2) = molecular target: T9, ADRBK1 (GRK2) (Homo sapiens, UniProt P25098)
T9 construct: purchased ThermoFisher (SelectScreen, Z'-LYTE)
T9 sequence (P25098 1-689): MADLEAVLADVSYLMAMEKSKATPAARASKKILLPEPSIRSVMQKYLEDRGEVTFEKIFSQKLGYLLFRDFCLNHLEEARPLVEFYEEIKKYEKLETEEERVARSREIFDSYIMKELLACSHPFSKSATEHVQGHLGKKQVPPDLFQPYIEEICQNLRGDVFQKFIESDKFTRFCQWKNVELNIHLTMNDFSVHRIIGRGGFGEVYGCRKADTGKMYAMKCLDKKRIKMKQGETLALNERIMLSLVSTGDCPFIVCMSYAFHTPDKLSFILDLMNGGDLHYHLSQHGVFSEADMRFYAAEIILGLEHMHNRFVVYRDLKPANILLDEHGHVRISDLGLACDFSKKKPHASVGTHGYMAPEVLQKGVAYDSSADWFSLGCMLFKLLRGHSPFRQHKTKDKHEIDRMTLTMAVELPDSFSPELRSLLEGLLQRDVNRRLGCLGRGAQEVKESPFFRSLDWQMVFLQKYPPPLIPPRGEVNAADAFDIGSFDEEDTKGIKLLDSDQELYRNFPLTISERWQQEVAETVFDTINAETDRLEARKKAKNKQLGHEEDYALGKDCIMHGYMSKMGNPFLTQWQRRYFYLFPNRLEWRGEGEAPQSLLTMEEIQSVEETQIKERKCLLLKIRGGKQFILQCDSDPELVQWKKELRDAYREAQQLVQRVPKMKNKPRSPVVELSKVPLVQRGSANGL
How it was run: as §1

T5 sequence (P35916 25-1363): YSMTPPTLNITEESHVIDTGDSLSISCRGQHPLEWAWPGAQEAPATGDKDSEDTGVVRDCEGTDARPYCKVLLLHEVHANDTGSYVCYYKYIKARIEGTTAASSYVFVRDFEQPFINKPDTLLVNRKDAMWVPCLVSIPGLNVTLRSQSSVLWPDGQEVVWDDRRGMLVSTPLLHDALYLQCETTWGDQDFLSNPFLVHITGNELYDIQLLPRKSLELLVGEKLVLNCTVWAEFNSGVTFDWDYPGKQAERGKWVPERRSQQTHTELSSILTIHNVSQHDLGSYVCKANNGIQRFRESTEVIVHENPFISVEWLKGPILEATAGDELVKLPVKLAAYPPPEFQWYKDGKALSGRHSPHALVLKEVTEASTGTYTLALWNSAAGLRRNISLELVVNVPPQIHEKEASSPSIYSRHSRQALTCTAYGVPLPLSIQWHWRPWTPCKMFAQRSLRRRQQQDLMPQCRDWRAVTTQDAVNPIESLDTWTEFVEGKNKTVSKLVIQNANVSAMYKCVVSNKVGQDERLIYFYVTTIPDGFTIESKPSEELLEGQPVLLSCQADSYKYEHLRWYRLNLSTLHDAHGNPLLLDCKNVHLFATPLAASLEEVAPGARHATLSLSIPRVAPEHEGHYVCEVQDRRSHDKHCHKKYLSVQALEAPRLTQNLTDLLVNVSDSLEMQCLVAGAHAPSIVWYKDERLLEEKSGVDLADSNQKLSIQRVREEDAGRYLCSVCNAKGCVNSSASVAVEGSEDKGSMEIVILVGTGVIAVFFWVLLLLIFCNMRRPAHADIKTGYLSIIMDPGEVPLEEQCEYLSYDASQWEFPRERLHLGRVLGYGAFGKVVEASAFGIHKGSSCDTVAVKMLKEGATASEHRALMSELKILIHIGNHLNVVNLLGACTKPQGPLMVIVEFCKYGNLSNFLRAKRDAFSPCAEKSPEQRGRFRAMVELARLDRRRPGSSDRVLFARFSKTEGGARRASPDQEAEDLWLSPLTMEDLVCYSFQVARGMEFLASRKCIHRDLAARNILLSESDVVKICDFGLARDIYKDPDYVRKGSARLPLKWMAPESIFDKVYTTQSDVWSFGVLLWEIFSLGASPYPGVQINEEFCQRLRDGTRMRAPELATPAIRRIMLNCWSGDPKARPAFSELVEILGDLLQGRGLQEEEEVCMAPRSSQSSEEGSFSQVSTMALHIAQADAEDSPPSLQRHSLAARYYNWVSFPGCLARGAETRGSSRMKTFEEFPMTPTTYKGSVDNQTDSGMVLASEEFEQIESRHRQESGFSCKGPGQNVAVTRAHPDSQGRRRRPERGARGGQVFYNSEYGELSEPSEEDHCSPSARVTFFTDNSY
T1 sequence (P07948 1-491 isoform P07948-2): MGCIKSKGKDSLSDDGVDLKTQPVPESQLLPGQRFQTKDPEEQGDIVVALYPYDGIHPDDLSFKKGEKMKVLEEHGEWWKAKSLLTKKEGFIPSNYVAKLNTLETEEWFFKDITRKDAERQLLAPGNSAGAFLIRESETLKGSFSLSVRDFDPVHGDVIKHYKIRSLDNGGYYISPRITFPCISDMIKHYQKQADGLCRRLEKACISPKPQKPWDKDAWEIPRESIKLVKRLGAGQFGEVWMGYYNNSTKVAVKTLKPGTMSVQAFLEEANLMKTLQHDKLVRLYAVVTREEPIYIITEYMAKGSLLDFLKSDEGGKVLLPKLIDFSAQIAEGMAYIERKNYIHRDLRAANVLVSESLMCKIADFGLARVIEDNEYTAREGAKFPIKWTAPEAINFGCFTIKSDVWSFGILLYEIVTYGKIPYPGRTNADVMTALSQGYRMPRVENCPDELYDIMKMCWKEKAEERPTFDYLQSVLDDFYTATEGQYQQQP
T2 sequence (Q9H422 whole entry): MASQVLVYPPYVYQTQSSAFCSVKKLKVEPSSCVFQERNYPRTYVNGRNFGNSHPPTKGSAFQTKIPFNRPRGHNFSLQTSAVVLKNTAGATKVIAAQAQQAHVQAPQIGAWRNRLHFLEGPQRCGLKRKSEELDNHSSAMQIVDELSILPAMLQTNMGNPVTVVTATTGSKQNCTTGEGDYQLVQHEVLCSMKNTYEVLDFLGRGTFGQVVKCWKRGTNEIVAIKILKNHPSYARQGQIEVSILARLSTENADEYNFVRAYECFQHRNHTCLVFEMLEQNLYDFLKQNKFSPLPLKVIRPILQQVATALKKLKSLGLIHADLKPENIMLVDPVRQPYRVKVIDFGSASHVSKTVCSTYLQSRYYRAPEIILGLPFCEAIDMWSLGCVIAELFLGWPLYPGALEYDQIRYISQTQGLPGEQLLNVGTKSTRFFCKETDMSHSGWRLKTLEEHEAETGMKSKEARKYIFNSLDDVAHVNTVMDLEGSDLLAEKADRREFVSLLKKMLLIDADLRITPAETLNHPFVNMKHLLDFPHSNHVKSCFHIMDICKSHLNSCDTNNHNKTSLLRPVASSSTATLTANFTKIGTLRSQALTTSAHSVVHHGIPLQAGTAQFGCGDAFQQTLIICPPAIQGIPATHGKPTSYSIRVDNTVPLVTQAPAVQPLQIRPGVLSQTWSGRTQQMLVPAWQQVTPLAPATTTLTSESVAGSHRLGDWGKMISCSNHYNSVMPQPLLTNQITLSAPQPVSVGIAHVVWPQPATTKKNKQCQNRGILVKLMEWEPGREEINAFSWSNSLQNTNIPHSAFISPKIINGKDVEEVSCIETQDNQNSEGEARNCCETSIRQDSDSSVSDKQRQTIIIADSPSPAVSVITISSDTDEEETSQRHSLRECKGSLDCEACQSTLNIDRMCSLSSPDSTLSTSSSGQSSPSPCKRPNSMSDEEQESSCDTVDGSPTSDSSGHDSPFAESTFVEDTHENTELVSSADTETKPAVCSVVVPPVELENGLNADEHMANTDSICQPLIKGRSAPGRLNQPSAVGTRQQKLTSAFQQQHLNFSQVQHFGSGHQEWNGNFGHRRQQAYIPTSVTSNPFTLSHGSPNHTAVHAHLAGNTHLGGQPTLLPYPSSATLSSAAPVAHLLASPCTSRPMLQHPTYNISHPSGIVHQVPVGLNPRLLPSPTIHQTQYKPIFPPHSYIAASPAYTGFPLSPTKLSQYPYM

Row | Compound | inhibition at 10 µM (LYN B) [%] | inhibition at 10 µM (HIPK3 (YAK1)) [%] | inhibition at 10 µM (SYK) [%] | inhibition at 10 µM (FGR) [%] | inhibition at 10 µM (FLT4 (VEGFR3)) [%] | inhibition at 10 µM (CAMK1D (CaMKI delta)) [%] | inhibition at 10 µM (PRKD2 (PKD2)) [%] | inhibition at 10 µM (EPHA1) [%] | inhibition at 10 µM (ADRBK1 (GRK2)) [%] | SYK % Inhibition (SYK; listed as SN1109056190, 10 µM) [%] | FLT4 (VEGFR3) % Inhibition (FLT4 (VEGFR3); listed as SN1109056190, 10 µM) [%] | LYN B % Inhibition (LYN B; 10 µM compound, ATP Km app) [%] | HIPK3 (YAK1) % Inhibition (HIPK3 (YAK1); 10 µM compound, ATP Km app) [%] | SYK % Inhibition (SYK) [%] | FGR % Inhibition (FGR; 10 µM compound, ATP Km app) [%] | FLT4 (VEGFR3) % Inhibition (FLT4 (VEGFR3)) [%] | CAMK1D (CaMKI delta) % Inhibition (CAMK1D (CaMKI delta); 10 µM compound, ATP Km app) [%] | PRKD2 (PKD2) % Inhibition (PRKD2 (PKD2); 10 µM compound, ATP Km app) [%] | EPHA1 % Inhibition (EPHA1; 10 µM compound, ATP Km app) [%] | ADRBK1 (GRK2) % Inhibition (ADRBK1 (GRK2); 10 µM compound, ATP Km app) [%]
1 | Cc1ncc(-c2nc(Nc3ccc(C(=O)NCCN4CCCCC4)cc3)ncc2F)n1C(C)C [Compound 3] | 91 | 88 | 90 | 90 | 99 | 59 | 95 | 98 | 17 |  |  |  |  |  |  |  |  |  |  | 
2 | Cc1cc(Nc2nc(N)nn2C(=O)NC(C)C)ccc1Cl [Compound 5] | 35 | 6.56 | > 80 | 54 | > 80 | 0.357 | 9 | 11 | -0.227 | 85 | 86 |  |  |  |  |  |  |  |  | 
3 | XMD8-92 [Compound 2, reference compound] |  |  |  |  |  |  |  |  |  |  |  | 39 | 1.8 | 22 | 83 | 4 | 19 | 21 | 9.48 | -1

— PMC4854315, “Discovery of a novel allosteric inhibitor-binding site in ERK5: comparison with the canonical kinase hinge ATP-binding site” (Acta Crystallographica. Section D, Structural Biology, 2016)
